From patent US12678440B2, “Compositions and methods for treating misfolded protein ocular disorders” (CASE WESTERN RESERVE UNIVERSITY, priority 2020, dated 2026)

Experiments:
Format in all cases: cell-based
P23H rhodopsin [1] = assay: Rhodopsin dot blot of NIH3T3 stable cells; conditions: 10 μM, 24 h, vs DMSO
Description: NIH3T3 (RHO^P23H/GFP) or NIH3T3 (RHO^WT/GFP) cells were seeded at 2.5×10^4 cells/well in 100 μL/well complete medium in a 96-well plate and cultured at 37° C. with 5% CO2 for 4 h. Cells then were treated with 100 μL/well complete medium containing 2×the final concentration of tested compounds. After 24 h of further incubation at 37° C. with 5% CO2, the medium was aspirated, and the cells were washed once with PBS. The cell lysis buffer containing radioimmunoprecipitation assay (RIPA) buffer and complete protease inhibitor cocktail (Roche Diagnostics, Basel, Switzerland) were added to the cells at 200 μL/well followed by sonication for 6 s. Because the cellular protein level of RHO^WT was higher than RHO^P23H, 5% of one well NIH3T3 (RHO^WT/GFP) cells samples and 90% of one well NIH3T3 (RHO^P23H/GFP) cells samples were loaded to a nitrocellulose membrane and air-dried. Opsin protein was immunostained with 0.1 μg/mL HRP-conjugated 1D4 anti-rhodopsin antibody. Densitometry of the bands was measured by the ImageJ software and normalized to DMSO-treating control.

P23H rhodopsin [2] = assay: Non-radioactive pulse-chase assay in NIH3T3 (RHO^P23H/GFP) cells; conditions: 10 μM; for Rate of Rho^P23H degradation (Pulse-chase): 24 h of chase, vs DMSO; for BTN-AHA labeled P23H rhodopsin at 24 h of chase: in comparison to DMSO control
Description: To quantify rhodopsin degradation, a non-radioactive pulse-chase assay was used with a ‘click’ reaction. Briefly, NIH3T3 (Rho^P23H/GFP) or NIH3T3 (Rho^WT/GFP) cells were cultured in a 24-well plate at 3×10^5 cells/well in the complete medium with 10% FBS. The medium was aspirated after overnight culture, and cells were gently washed once with 1 mL/well of PBS. Cell were incubated in the L-methionine-free DMEM (Gibco, 21013-024, Gaithersburg, MD USA) for 1 h to exhaust the intracellular methionine. Then the cells were pulsed with L-AHA at final concentration 50 μM for 4 h. Meanwhile, the cells treated with 50 μM L-methionine were used as negative control. After labeling, cells were replaced with the complete DMEM medium with 2 mM L-methionine in the presence or absence of active compounds for a varying time of chase. Then cells were lysed with PBS containing 0.1% SDS, 1% DDM and the complete protease inhibitor cocktail. The total protein concentrations were measured by a BCA assay. Cell lysate containing 200 μg total protein was mixed with 5 μM BTN-sDIBO to make a ‘click’ reaction for 1 h at 37° C. Samples were incubated with Dynabeads™ Protein G binding with 1D4 anti-rhodopsin antibody for 15 min at room temperature followed by three washes with PBS containing 0.02% Tween 20. Proteins were eluted with 50 mM Glycine at pH 2.8 for 10 min at room temperature and then loaded onto nitrocellulose membranes. After air-dried, the membranes were blocked with 5% milk and immunoblotted with 0.25 μg/mL HRP-conjugated SA.

P23H rhodopsin [3] = assay: Image-based (high-content imaging) assay in NIH3T3 (RHO^P23H/GFP) cells; conditions: for EC50 / Efficacy, Image-based assay NIH3T3 (RHO^P23H/GFP): 24 h; for EC50: 8-10 doses, rhodopsin immunostaining; for Efficacy, Image-based assay NIH3T3 (RHO^P23H/GFP): DMSO 0%, secondary antibody only −100%
Text: Two NIH3T3 stable cell lines, NIH3T3 (RHO^WT/GFP) and NIH3T3 (RHO^P23H/GFP) were shared by Dr. Krzysztof Palczewski's lab who generated them by incorporating the […] DNA constructs to the NIH3T3 cells, respectively, via viral transduction (24, 33). GFP was co-expressed with rhodopsin for positive-clone selection. The expression of the WT and P23H rhodopsin protein was confirmed by immunoblots and immunostaining.
To assess the effect of active compounds on the clearance of P23H rhodopsin in mammalian cells, an image-based assay was performed using NIH3T3 (RHO^WT/GFP) and NIH3T3 (RHO^P23H/GFP) cells, as described previously. Briefly, cells were seeded at 5000 cells per well in 384-well plates and incubated at 37° C. in 5% CO2 for 4 hours until cells were attached to the bottom of the plate. Attached cells were treated with compounds for 24 hours. The assay medium was aspirated, and cells were fixed with 4% paraformaldehyde at 20 μL per well for 20 min at room temperature. Cell membranes were permeabilized with PBS containing 0.1% Triton X-100 (PBST) and then incubated with 50 µg/mL 1D4 anti-rhodopsin antibody at 15 μL/well for 1 hour at room temperature. After three washes with 50 μl/well of PBST, cells were incubated with 15 μL/well Cy3-conjugated goat anti-mouse IgG antibody for 1 hour at room temperature. After three washes with 50 μl/well of PBST, cells were incubated in 50 μl/well of PBS containing 2 μg/mL Hoechst 33342 to stain the nuclei. Finally, the immunostained cells were imaged by an ImageExpress High Content Imaging System (MolecularDevices). Immunofluorescence of rhodopsin was measured by MetaXpress software using the mean of total fluorescence of Cy3 channel per cell per well taken from five fields containing 600-1000 intact cells per well. After normalizing the fluorescence intensities of rhodopsin to the DMSO treated cells as 0% and cells immunostained with secondary antibody only as −100%, dose-response curves for each compound were plotted and fitted by a modified Hill function using the Origin software. The high-content imaging experiments for hit validation were performed at the CWRU drug discovery facility, and the high-content imaging analyses for the MTX co-treatment with BafA1 and MG-132 were undertaken at the University of Pittsburgh Drug Discovery Institute.

| EC50 (P23H rhodopsin [3]) [µM] | Structure (SMILES) | Rho protein level (Dot blot) (P23H rhodopsin [1]) | Rate of Rho^P23H degradation (Pulse-chase) (P23H rhodopsin [2]) | BTN-AHA labeled P23H rhodopsin at 24 h of chase (P23H rhodopsin [2]) | Efficacy, Image-based assay NIH3T3 (RHO^P23H/GFP) (P23H rhodopsin [3]) [%] | EC50 (P23H rhodopsin [3]; listed as MTX) [µM] | mean intensity of P23H rhodopsin immunostaining per cell (P23H rhodopsin [3]; MTX alone, dose series) | MTX dose-dependent reduction of P23H rhodopsin immunostaining, co-treatment with BafA1 (P23H rhodopsin [3]; co-treatment 100 nM BafA1) | MTX dose-dependent reduction of P23H rhodopsin immunostaining, addition of MG-132 (P23H rhodopsin [3]; co-treatment 5 μM MG-132) |
| --- | --- | --- | --- | --- | --- | --- | --- | --- | --- |
| 2.1 | CC(=O)OC(CC(=O)[O-])C[N+](C)(C)C (stereo not drawn) [CL-001] | Down | Up | significantly reduced | −83.6 | – | – | – | – |
| 1.6 | CC(=O)OC(CC(=O)O)C[N+](C)(C)C (stereo not drawn) [CL-002] | Down | Up | significantly reduced | −61.0 | – | – | – | – |
| 0.6 | O=C(O)C1=CC=CC(O)C1O (stereo not drawn) [CL-003] | Down | No Change | – | −46.1 | – | – | – | – |
| 1.3 | NCC(=O)COP(=O)(O)O [CL-005] | Down | Up | significantly reduced | −72.7 | – | – | – | – |
| 1.6 | CCC(C)(O)C(O)C(=O)O (stereo not drawn) [CL-008] | Down | No Change | – | −70.1 | – | – | – | – |

Further lines, the molecule ahead of its results:

| Structure (SMILES) | EC50 (P23H rhodopsin [3]) [µM] | Rho protein level (Dot blot) (P23H rhodopsin [1]) | Rate of Rho^P23H degradation (Pulse-chase) (P23H rhodopsin [2]) | BTN-AHA labeled P23H rhodopsin at 24 h of chase (P23H rhodopsin [2]) | Efficacy, Image-based assay NIH3T3 (RHO^P23H/GFP) (P23H rhodopsin [3]) [%] | EC50 (P23H rhodopsin [3]; listed as MTX) [µM] | mean intensity of P23H rhodopsin immunostaining per cell (P23H rhodopsin [3]; MTX alone, dose series) | MTX dose-dependent reduction of P23H rhodopsin immunostaining, co-treatment with BafA1 (P23H rhodopsin [3]; co-treatment 100 nM BafA1) | MTX dose-dependent reduction of P23H rhodopsin immunostaining, addition of MG-132 (P23H rhodopsin [3]; co-treatment 5 μM MG-132) |
| --- | --- | --- | --- | --- | --- | --- | --- | --- | --- |
| CC(O)CN (stereo not drawn) [CL-004] | 0.47 | Down | No Change | – | −70.7 | – | – | – | – |
| O=C(NC1CCNCC1)c1n[nH]cc1NC(=O)c1c(Cl)cccc1Cl [CL-006] | 2.2 | Down | No Change | – | −76.4 | – | – | – | – |
| CCn1cnc2c(N)ncnc21 [CL-007] | 2.9 | Down | Up | significantly reduced | −72.7 | – | – | – | – |
| CN(Cc1cnc2nc(N)nc(N)c2n1)c1ccc(C(=O)N[C@@H](CCC(=O)O)C(=O)O)cc1 [CL-009, N-[4-[[(2,4-diamino-6-pteridinyl)methyl]methylamino]benzoyl]-L-glutamic acid] | 3.3 | Down | Up | significantly reduced | −36.0 | ~3.3 | reduced in an MTX dose-dependent manner | entirely abolished | not affected |
